Values quoted from earlier work in US9278942B2, “Non-steroidal compounds as androgen receptor modulators” (FLX Discoveries Oy, priority 2011, dated 2016).

Biological target: T1, LNCaP (containing an AR mutation) (Homo sapiens, UniProt P10275, T878A)
T1 sequence (P10275 1-920 T878A): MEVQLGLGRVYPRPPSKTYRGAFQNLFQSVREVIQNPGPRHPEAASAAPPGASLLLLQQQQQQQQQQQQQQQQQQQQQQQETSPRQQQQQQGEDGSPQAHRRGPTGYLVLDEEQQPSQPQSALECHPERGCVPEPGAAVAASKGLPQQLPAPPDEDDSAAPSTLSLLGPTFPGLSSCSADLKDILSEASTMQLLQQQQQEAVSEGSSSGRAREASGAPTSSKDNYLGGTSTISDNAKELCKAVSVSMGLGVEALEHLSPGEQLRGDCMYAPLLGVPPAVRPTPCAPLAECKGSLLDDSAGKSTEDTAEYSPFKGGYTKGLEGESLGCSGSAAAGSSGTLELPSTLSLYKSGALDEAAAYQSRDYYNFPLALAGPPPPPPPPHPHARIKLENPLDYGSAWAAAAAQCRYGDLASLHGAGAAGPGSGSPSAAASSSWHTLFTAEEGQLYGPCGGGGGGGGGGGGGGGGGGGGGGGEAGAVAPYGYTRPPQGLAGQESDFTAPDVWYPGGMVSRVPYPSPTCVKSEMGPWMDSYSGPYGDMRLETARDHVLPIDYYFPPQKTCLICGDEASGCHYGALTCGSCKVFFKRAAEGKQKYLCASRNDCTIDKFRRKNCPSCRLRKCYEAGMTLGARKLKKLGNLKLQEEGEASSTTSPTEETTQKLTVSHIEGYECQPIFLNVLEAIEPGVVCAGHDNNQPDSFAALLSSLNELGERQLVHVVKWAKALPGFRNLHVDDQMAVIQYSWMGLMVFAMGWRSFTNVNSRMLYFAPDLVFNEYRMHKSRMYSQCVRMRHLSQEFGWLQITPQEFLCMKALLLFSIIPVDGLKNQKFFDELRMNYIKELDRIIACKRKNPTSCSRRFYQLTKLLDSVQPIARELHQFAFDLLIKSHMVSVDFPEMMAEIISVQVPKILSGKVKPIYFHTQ
Details: LNCaP prostate cancer cells; cited from earlier work

CC(C)(O)C(=O)Nc1ccc([N+](=O)[O-])c(C(F)(F)F)c1 [Hydroxyflutamide, reference compound]
Activity of hydroxyflutamide at the AR mutation of LNCaP cells: agonist
